{"source": "patent US10131650B2", "about": "“Alpha-helix analog having triazine-piperazine backbone and method for preparing same” (POSCO, priority 2014, dated 2018)", "key": {"[1]": {"target": "T1, interaction between MCL-1 and BH3 (Homo sapiens, UniProt Q07820)", "T1 construct": "GST (cleaved yes); made in house; host or cells: E. coli BL21(DE3)", "T1 sequence (Q07820 172-320)": "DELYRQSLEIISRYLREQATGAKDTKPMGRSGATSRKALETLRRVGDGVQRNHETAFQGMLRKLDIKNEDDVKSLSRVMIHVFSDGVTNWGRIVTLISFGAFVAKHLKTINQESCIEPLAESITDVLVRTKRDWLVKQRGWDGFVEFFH", "experiment": "Competitive fluorescence polarization assay with FITC-MCL-1-BH3 peptide", "assay_type": "binding", "details": "for Ki: competitive fluorescence polarization, FITC-MCL-1-BH3 50 nM, 0.8 μM MCL-1ΔNΔC, read-out: Ki, dissociation of the interaction between MCL-1 and BH-3; for activity in competitive fluorescence polarization assay (MCL-1/BH3): result in words", "description": "MCL-1 protein was incubated with sulfo-NHS-Biotin (Thermo Scientific) in 0.1 M NaHCO3 buffer (pH 8.3) for 45 minutes at room temperature to biotinylate the MCL-1 protein (because MCL-1ΔNΔC protein used in the test have several Lysine residues being exposed in a surface and being apart from the active site of BH3 binding, the protein is biotinylated with modification). The reaction was quenched with addition of 1.5 M hydroxylamine. The labeled protein was separated with the dialysis with 1×PBS buffer containing 0.05% Tween20 (pH 7.4). The degree of labeling was determined according to the manufacturer's instructions (degree of biotinylation: 1.05 biotin per protein).\nFluorescence polarization values were measured with a SpectraMax M5 Multi-Mode Microplate Reader (Molecular Devices). […] KD was calculated with GraphPad Prism 4 software. […] N-terminal labeled FITC-MCL-1-BH3 peptide (FITC-Abu-[…]-NH2) was synthesized and purified with HPLC. The compounds was incubated at various concentrations with FITC-MCL-1-BH3 (50 nM) and 0.8 μM MCL-1ΔNΔC in binding buffer for 30 minutes and then was added by FITC-MCL-1-BH3 (50 nM). After incubated with addition of various concentrations of compounds, the fluorescence polarization was measured. Ki was calculated by using the conventional method (Nikolovska-Coleska, Z. et al, Anal. Biochem. 2004, 332, 261)."}, "[2]": {"experiment": "Water solubility in phosphate buffered saline", "assay_type": "physicochemical", "details": "aqueous buffer; phosphate buffered saline at pH 7.4", "excerpt": "As a result of analyzing the three peptoids, the selected compounds had the following structures of 9a (Chemical formula 4), 9b (Chemical formula 5) and 9c (Chemical formula 6), respectively."}, "[3]": {"target": "T2, MCL-1/BAK interaction in Jurkat T cells (Homo sapiens, UniProt Q07820)", "T2 construct": "endogenous in cells; host or cells: Jurkat T cells", "experiment": "Co-immunoprecipitation and Western blotting", "assay_type": "cell-based", "details": "2.5 hours, MCL-1 immunoprecipitation, Western blot", "description": "In Opti-MEM medium, Jurkat T cells (1×10^7 cells) were treated with DMSO or compound. Cells were harvested after culturing for 2.5 hours, washed once with PBS, and lysed on ice using lysis buffer (50 mM Tris-HCl, pH 7.4, 150 mM NaCl, 1 mM EDTA, 1 mM DTT, 0.5% NP-40 and complete protease inhibitor tablet). Cell lysates were incubated with anti-MCL-1 antibody (S-19, Santa Cruz) overnight at 4° C. and incubated with protein A/G agarose for 1 hour. The beads were precipitated, washed at three times with lysis buffer, and the denatured protein was subjected to western blotting using anti-BAK (Cell Signaling) and anti-MCL-1 antibody. Western blot analysis was performed on an Immobilon-FL (Millipore) PVDF membrane. Goat anti-Rabbit IRDye 680 antibody (Licor) was used as a secondary antibody and the signal was analyzed with Odyssey 3.0 software."}, "Mcl-1172-320": {"target": "Mcl-1172-320 (Homo sapiens, UniProt Q07820)", "sequence (Q07820 172-320)": "as above", "experiment": "Competitive fluorescence polarization assay with labeled Bak-BH3 peptide"}, "Bcl-xL1-212": {"target": "Bcl-xL1-212 (Homo sapiens, UniProt Q07817)", "sequence (Q07817 1-212)": "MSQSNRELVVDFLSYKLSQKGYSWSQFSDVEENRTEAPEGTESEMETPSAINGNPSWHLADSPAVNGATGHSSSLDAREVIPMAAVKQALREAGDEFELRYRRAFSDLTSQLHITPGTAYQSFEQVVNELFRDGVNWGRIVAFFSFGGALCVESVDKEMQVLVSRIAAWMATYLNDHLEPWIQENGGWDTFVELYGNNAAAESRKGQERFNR", "experiment": "Competitive fluorescence polarization assay, selectivity", "assay_type": "binding", "details": "competitive FP", "excerpt": "Because BH3-binding pocket of MCL-1 is similar to BH3-binding pocket of Bcl-2 family proteins such as Bcl-xL, the present inventors tested the selectivity of PPT-31."}, "[4]": {"target": "α-synuclein disease-associated mutant A53T (Homo sapiens, UniProt P37840, A53T)", "experiment": "Thioflavin-T aggregation assay", "assay_type": "biochemical", "details": "30 hours, 37° C."}, "[5]": {"system": "HEK293 embryonic kidney cells", "experiment": "Cell viability assay", "assay_type": "cell-based", "details": "24 hours"}, "[6]": {"system": "WS-1 human fibroblast cells", "experiment": "Cell viability assay", "assay_type": "cell-based", "details": "24 hours", "description": "(§1) Jurkat T cells were cultured in RPMI 1640 medium containing 10% FBS, and 4×10^4 Jurkat T cells were seeded in 100 μL Opti-MEM medium (Invitrogen) of 96-well plate. WS-1 cells were cultured in MEM medium containing 10% FBS and 2×10^4 WS-1 cells were seeded in 100 μL MEM medium containing 10% FBS of 96-well plate for 24 hours, washed with PBS, and cultured in 100 μL Opti-MEM. The cells were maintained at serum-starved state for 6 hours and treated with the compound. After culturing for 24 hours, the cell viability was assayed using the CellTiter 96 AQueous Non-Radioactive Cell Proliferation Assay kit (Promega) according to the manufacturer's instructions."}, "Jurkat leukemia T cells": {"system": "Jurkat leukemia T cells", "experiment": "Cell viability assay", "assay_type": "cell-based", "details": "24 hours", "description": "as §1"}, "α-synuclein": {"target": "T3, α-synuclein (Homo sapiens, UniProt P37840)", "T3 construct": "GST (cleaved yes); made in house; host or cells: E. coli Rosetta 2 (DE3)", "experiment": "Fluorescence polarization assay, binding to wild type α-synuclein", "details": "result in words"}, "A549 cells": {"system": "A549 cells", "experiment": "Confocal microscopy, cell permeation", "assay_type": "cell-based", "details": "fluorescence-labeled compound", "description": "A549 cells (5×10^3 cells) were plated MEM medium containing 10% FBS of 96-well plates. Cells were maintained for 24 hours, washed with PBS, and then […] of fluorescence-labeled compound or 5 (6)-carboxyfluorescein was treated in Opti-MEM medium and incubated for 2.5 hours. The cells were washed with 1×PBS (2 times) and fluorescence images were analyzed."}, "[7]": {"system": "U266 cells (multiple myeloma)", "experiment": "Cell viability assay", "assay_type": "cell-based", "details": "24 hours"}, "U266 cells": {"system": "U266 cells", "experiment": "Caspase 3/7 assay", "assay_type": "cell-based", "details": "16 hours"}}}
{"smiles": "CCCN(CC1CC1)c1nc(N)nc(N2CCN(c3nc(NCC)nc(NCc4ccc5c(c4)OCO5)n3)C(Cc3ccccc3)C2)n1", "note": "(stereo not drawn) [Chemical formula 5, 6-(4-(4-amino-6-((cyclopropylmethyl)(propyl)amino)-1,3,5-triazin-2-yl)-2-benzylpiperazin-1-yl)-N^2-(benzo[d][1,3]dioxol-5-ylmethyl)-N^4-ethyl-1,3,5-triazine-2,4-diamine]", "values": [{"measurement": "Ki", "setting": "[1]", "value": 17.2, "unit": "µM"}, {"measurement": "solubility", "setting": "[2]", "value": "~100", "unit": "µg/mL"}, {"measurement": "inhibition of MCL-1/BAK protein interaction in cells", "setting": "[3]", "value": "effectively inhibit"}]}
{"smiles": "CCNc1nc(NCc2ccccc2)nc(N2CCN(c3ccc(C(N)=O)cc3NCc3ccccc3)CC2Cc2ccccc2)n1", "note": "(stereo not drawn) [PPT-31, 2-{4-(2-aminobenzyl-4-carbamoylphenyl)-2-benzyl-piperazine}-4-aminoethyl-6-aminobenzyl-[1,3,5]triazine]", "values": [{"measurement": "Ki", "setting": "Mcl-1172-320", "value": 7.3, "unit": "µM"}, {"measurement": "inhibitory effect on the Mcl-1/BH3 interaction", "setting": "Mcl-1172-320; at 10 μM and 50 μM, among 36 library compounds", "value": "highest inhibitory effect"}, {"measurement": "inhibition of the interaction between Bcl-xL1-212 and BH3", "setting": "Bcl-xL1-212", "value": "did not inhibit"}]}
{"smiles": "CCNc1nc(N)nc(N2CCN(c3nc(NCC)nc(NCC)n3)CC2)n1", "note": "[9-nc, 6-(4-(4-amino-6-(ethylamino)-1,3,5-triazin-2-yl)piperazin-1-yl)-N^2,N^4-diethyl-1,3,5-triazine-2,4-diamine, reference compound]", "values": [{"measurement": "activity in competitive fluorescence polarization assay (MCL-1/BH3)", "setting": "[1]", "value": "did not bind"}, {"measurement": "inhibition of MCL-1/BAK protein interaction in cells", "setting": "[3]", "value": "did not inhibit"}]}
{"smiles": "CCNc1nc(NCc2ccccc2)nc(N2CCN(c3nc(N)nc(NCc4ccc5c(c4)OCO5)n3)CC2Cc2ccccc2)n1", "note": "(stereo not drawn) [Chemical formula 4, 6-(4-(4-amino-6-((benzo[d][1,3]dioxol-5-ylmethyl)amino)-1,3,5-triazin-2-yl)-2-benzylpiperazin-1-yl)-N^2-benzyl-N^4-ethyl-1,3,5-triazine-2,4-diamine]", "values": [{"measurement": "activity in competitive fluorescence polarization assay (MCL-1/BH3)", "setting": "[1]", "value": "weak activity"}, {"measurement": "aggregation of α-synuclein (onset / inhibition)", "setting": "[4]", "value": "had not inhibition of aggregation"}, {"measurement": "solubility", "setting": "[2]", "value": "~100", "unit": "µg/mL"}]}
{"smiles": "CCNc1nc(NCCc2ccc(O)cc2)nc(N2CCN(c3nc(N)nc(Nc4ccc(Oc5ccccc5)cc4)n3)CC2Cc2ccccc2)n1", "note": "(stereo not drawn) [Chemical formula 6, 4-(2-((4-(4-(4-amino-6-((4-phenoxyphenyl)amino)-1,3,5-triazin-2-yl)-2-benzylpiperazin-1-yl)-6-(ethylamino)-1,3,5-triazin-2-yl)amino)ethyl)phenol]", "values": [{"measurement": "Ki", "setting": "[1]", "value": 9.3, "unit": "µM"}, {"measurement": "survival of normal cells", "setting": "[5]", "value": "did not affect survival"}, {"measurement": "survival of normal cells", "setting": "[6]", "value": "did not affect survival"}, {"measurement": "survival of cancer cells", "setting": "Jurkat leukemia T cells", "value": "effectively inhibited the survival"}, {"measurement": "solubility", "setting": "[2]", "value": "~100", "unit": "µg/mL"}, {"measurement": "inhibition of MCL-1/BAK protein interaction in cells", "setting": "[3]", "value": "inhibited"}, {"measurement": "binding to α-synuclein", "setting": "α-synuclein", "value": "showed affinity"}, {"measurement": "cell permeability", "setting": "A549 cells", "value": "permeable to cells"}, {"measurement": "survival of cancer cells", "setting": "[7]", "value": "effectively inhibited the survival"}, {"measurement": "caspase 3/7 activity", "setting": "U266 cells", "value": "increased the caspase activity in a concentration-dependent manner"}]}
